Assay results reported in patent US20250041330A1, “METHOD OF TREATING OBESITY BY SELECTIVE TARGETING OF VISCERAL ADIPOSITY USING POLYCATION NANOMEDICINE” (THE TRUSTEES OF COLUMBIA UNIVERSITY IN THE CITY OF NEW YORK, priority 2022, published 2025).

Tested on: 3T3-L1 cells
Experiment: 3T3-L1 adipocyte differentiation (lipid staining, qPCR)
Type: cell-based, mouse
Settings: NMN 20 mM with P-G3 10 μg/ml, day 0-3 of differentiation
Protocol: 3T3-L1 (ATCC CL-173) and C3H10T1/2 (CCL-226) cells were purchased from ATCC and cultured in high glucose DMEM supplemented with 10% calf serum (CS, Gemini Bio-Products 100-506) or FBS (heat-inactivated, Corning 35-011-CV), and 1× Pen Strep (Thermo Fisher). Cells were differentiated in the standard adipogenic cocktail after reaching confluence for 2 days. The cocktail contains DMEM, 10% FBS, 1 μM dexamethasone (DEX), 10 μg/ml insulin and 0.5 mM 3-isobutyl-1-methylxanthine (IBMX). 5 μM Rosiglitazone was used in the first two days to facilitate C3H10T1/2 cells' differentiation. After induction for two days, cells were maintained in a complete medium containing 2.5 μg/ml insulin until fully differentiated. P-G3 polymers or NPs (10 μg/ml) were added at indicated times, and cells were harvested during differentiation for analyses. Lipid droplets were visualized using Oil Red O staining or BODIPY staining. 3T3-L1 cells were treated with rapamycin (100 nM) from Day 4 to Day 6. […]
Total RNA from tissues or cells was extracted by using the TriZol reagent (Thermo Fisher) in combination with an RNA isolation kit from Macherey-Nagel. […] Bio-Rad CFX96 Real-Time PCR system was used to perform quantitative real-time PCR (qPCR) with goTaq qPCR Master Mix (Promega). The relative gene expression was calculated by using the ΔΔCt method with Cyclophilin A or Rpl23 as the reference gene. […]

Question: `NC(=O)c1ccc[n+]([C@@H]2O[C@H](COP(=O)([O-])O)[C@@H](O)[C@H]2O)c1` [NMN, nicotinamide mononucleotide] was tested. Which “effect on P-G3's pro-adipogenic effect” value did it give?
Answer: counteracted the pro-adipogenic effect of P-G3
